Data: patent US12653805B2, “Targeting LASP1, eIF4A1, eIF4B and CXC4 with modulators and combinations thereof for cancer therapy” (The University of Toledo, priority 2019, dated 2026)

Columns and labels:
[1] = system: triple-negative MDA-MB-231 cells; test: Immunoblotting after digoxin in MDA-MB-231 cells; assay type: cell-based, human
MCF7 breast cancer cells = conditions: RNA-Seq data, p 4.3E−10, adjusted p 8.5E−7; cited from earlier work
eIF4A1 = target: T1, eIF4A1 (Homo sapiens, UniProt P60842); assay type: cell-based
T1 construct: A GQ-5′-UTR dual reporter was created in breast cancer cell lines; endogenous in cells
Text: A GQ-5′-UTR dual reporter was created in breast cancer cell lines which would report either a reduction in td-Tomato fluorescence or luciferase activity if eIF4A1 is inhibited by any of the compounds in the Prestwick library (FIGS. 26A-26B).

[2] = system: triple-negative SUM-159-PT cells; test: Immunoblotting after digoxin in SUM-159-PT cells; assay type: cell-based, human; conditions: 30 nM digoxin (low dose)
[3] = system: BCSCs derived from SUM-159PT cells; test: Mammosphere formation efficiency (MFE) assay, BCSCs from SUM-159PT; assay type: cell-based, human
Protocol: (§1) The evaluation of MFE was performed as described previously. Briefly, 1×10^3 ALDH+ BCSCs of MDA-Bone-Un or SUM-159PT origins were seeded onto 96-well ultra-low attachment plates. They were maintained in DMEM/F12 media supplemented with […] bFGF, […] hEGF, 2% B27 mixture, and 1% penicillin/streptomycin for 7 days. The mammosphere images were obtained longitudinally by employing IncuCyte® S3 Live-Cell Analysis System (Essen BioScience, Ann Arbor, Mich.). On day 7, MFE was calculated by employing the formula: (number of mammospheres formed/total number of cells seeded)×100. A diameter of 100 μm was used as a cut-off in the determination of the mammosphere forming ability. For the assessment of secondary MFE, the BCSCs from primary MFE were collected, centrifuged, and re-seeded onto 96-well plates coated with poly 2-hydroxyethyl methacrylate (poly-HEMA). The cells were monitored, and the mammospheres were counted using IncuCyte.

[4] = system: 231S LASP1 NS and KD cells; test: Pharmacological inhibition of eIF4A in 231S LASP1 NS and KD cells; assay type: cell-based, human
Protocol: 231S LASP1 NS/KD cells were plated into 96-well dishes (3,000 cells/well) and incubated with various amounts of rocaglamide A (RocA) (Sigma/Aldrich, St. Louis, Mo., Cat. No. SML0656) in low serum media (LSM-DMEM/0.5% FBS). Images were acquired via an IncuCyte R S3 Live-Cell Analysis System (Essen BioScience, Ann Arbor, Mich.). Two images per well were acquired every 2 h. Data was processed on the IncuCyte S3 software (Essen BioScience, Ann Arbor, Mich.). Only cells with an area >150 μm^2 were analyzed to avoid cellular debris. Data is reflective of the percent confluence of each image at 36 h RocA incubation. Percent inhibition was calculated in reference to the DMSO control. The readings from 231S LASP1 NS cells were set to 1. In the cell viability experiments, 231S LASP1 NS/KD cells were seeded at 6,000 cells/well and allowed to attach and spread overnight. The following day, complete media was replaced with LSM and RocA. Cell viability was then determined 36 h later using a cell counting kit-8 (Sigma/Aldrich, St. Louis, Mo., Cat. No 96992) according to the manufacturer's instructions. Data is reflective of the absorbance at 450 nm (A450). The DMSO controls were set to 100%.

[5] = system: MDA-Bone-Un eIF4A CC and KO cells; test: Viability of MDA-Bone-Un eIF4A CRISPR control and knockout cells after RocA; assay type: cell-based, human; conditions: 48 h
Protocol: (§2) Briefly, to assess the cell viability, 3×10^3 cells/well (SUM-159PT, SUM Pac 200 nM, MDA-Bone-Un eIF4A CC and KO) were seeded and the cells were allowed to attach and spread overnight under adherent or non-adherent low attachment conditions.

[6] = system: BCSCs derived from MDA-Bone-Un cells; test: CellTiter-Glo viability assay in BCSCs from MDA-Bone-Un; assay type: cell-based, human; conditions: 7 days
Text: (§3) The cell viability was alternatively determined on day 7 following treatment with RocA by employing the CellTiter-Glo® luminescent cell viability kit (Promega, Cat. #—G7570) as per the manufacturer's instructions. This quantitative assay is a homogeneous method of determining the number of viable cells in culture based on the amount of adenosine triphosphate (ATP) present inside the cells.

[7] = system: BCSCs derived from MDA-Bone-Un cells; test: Immunoblotting of RocA-treated BCSCs from MDA-Bone-Un; assay type: cell-based, human
SUM-159PT cells = test: Viability of parental and paclitaxel-resistant SUM-159PT cells after RocA; assay type: cell-based, human; conditions: therapy naïve and paclitaxel-resistant (Pac 200) cells, 48 h, adherent and non-adherent conditions
Protocol: as §2

[8] = system: BCSCs derived from MDA-Bone-Un cells; test: DRAQ7 cell death assay in BCSCs from MDA-Bone-Un; assay type: cell-based, human; conditions: 30 nM RocA, 7 days
Protocol: (§4) The induction of cell death by the small molecule inhibitor rocaglamide A (RocA) (Sigma/Aldrich, St. Louis, Mo., Cat. #—SML0656) was followed by employing Deep Red Anthraquinone 7 (DRAQ7) dye (Abcam, Cat. #—ab109202). DRAQ7 is a cell impermeable, far-red fluorescent DNA dye that stains the nuclei of dead and plasma membrane-compromised cells. […] For the cell death analysis, ALDH+ BCSCs were treated with the indicated drug dosage for 7 days. On day 7, DRAQ7 was added to the cells (1:2,000 dilution) and incubated overnight. Dead BCSCs were tracked by DRAQ7 fluorescence by employing the EVOS cell imaging system (ThermoFisher Scientific, Rockford, Ill.).

[9] = system: BCSCs derived from MDA-Bone-Un cells; test: Mammosphere formation efficiency (MFE) assay, BCSCs from MDA-Bone-Un; assay type: cell-based, human; conditions: 10 nM RocA, p<0.0001
Protocol: as §1

[10] = system: BCSCs derived from SUM-159PT cells; test: DRAQ7 cell death assay in BCSCs from SUM-159PT; assay type: cell-based, human; conditions: 5 nM RocA, day 7
Protocol: as §4

[11] = system: BCSCs derived from SUM-159PT cells; test: CellTiter-Glo viability assay in BCSCs from SUM-159PT; assay type: cell-based, human; conditions: 5 nM RocA
Text: as §3

[12] = 45 nM RocA, 72 h, pooled replicates

T1 sequence (P60842 whole entry): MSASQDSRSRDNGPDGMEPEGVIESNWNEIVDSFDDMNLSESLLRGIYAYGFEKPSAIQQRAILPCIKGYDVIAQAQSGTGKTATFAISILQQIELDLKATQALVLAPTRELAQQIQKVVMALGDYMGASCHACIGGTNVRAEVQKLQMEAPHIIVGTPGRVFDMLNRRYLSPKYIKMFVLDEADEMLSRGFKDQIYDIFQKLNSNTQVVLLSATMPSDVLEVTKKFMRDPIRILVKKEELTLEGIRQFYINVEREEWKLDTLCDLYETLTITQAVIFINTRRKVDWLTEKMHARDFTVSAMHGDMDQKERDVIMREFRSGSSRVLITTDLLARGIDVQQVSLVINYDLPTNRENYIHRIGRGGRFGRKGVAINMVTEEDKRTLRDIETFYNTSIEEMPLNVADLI

In the case of `C[C@H]1O[C@@H](O[C@H]2[C@@H](O)C[C@H](O[C@H]3[C@@H](O)C[C@H](O[C@H]4CC[C@@]5(C)[C@H](CC[C@@H]6[C@@H]5C[C@@H](O)[C@]5(C)[C@@H](C7=CC(=O)OC7)CC[C@]65O)C4)O[C@@H]3C)O[C@@H]2C)C[C@H](O)[C@@H]1O` [digoxin], the “downstream effectors of eIF4A1 activity BIRC5 (survivin) and Rho Kinase 1 (ROCK1)” value [1] is listed as “dose-dependent inhibition”, the “C-Myc mRNA level” value (MCF7 breast cancer cells) is listed as “decrease” and the “activity of eIF4A1” value (eIF4A1; 3 different TNBC cell lines) is listed as “potently inhibited”. For the same compound, the Z-score (eIF4A1; Prestwick chemical library screen) was “below −5”, the “downregulation (reduction) of c-MYC” value [2] was 60% and the “downregulation of the levels of eIF4A1” value [2] was 50%.
In the case of `COc1ccc([C@@]23Oc4cc(OC)cc(OC)c4[C@]2(O)[C@H](O)[C@H](C(=O)N(C)C)[C@H]3c2ccccc2)cc1` [rocaglamide A], the “reduction in formation of the primary mammospheres” value ([3]; 10 nM RocA) is reported as 50%, the “decrease in secondary MFE” value ([3]; RocA, compared with primary MFE) is reported as “more drastic” and the cellular viability ([4]; 231S LASP1 KD cells, RocA 36 h, cell counting kit-8) is reported as “significantly decreased”. For the same compound, the BIRC5 levels ([4]; 231S LASP1 NS cells, 24 h RocA, 30 to 100 nM) was “dose-dependent decrease”, the proliferation ([4]; MDA-MB-231 cells with stable knockdown of LASP1 combined with rocaglamide A) was “effectively inhibited” and the “viability following RocA challenge” value ([5]; MDA-Bone-Un eIF4A CC cells) was “steep decrease in viability”. The “sensitivity of viability to RocA” value ([5]; MDA-Bone-Un eIF4A KO cells, up to 60 nM RocA) was “relatively insensitive”, the “viability based on ATP level” value ([6]; 30 nM RocA) was “nearly all BCSCs were wiped out” and the IC50 ([6]; cellular ATP, read-out: half maximal inhibitory concentration (IC50)) was 15 nM. For the same compound, the “reduction in NANOG level” value ([7]; 15 nM RocA, 48 h) was 2 fold, the “reduction of ABC transporter ABCB1” value ([7]; 45 nM RocA, 48 and 72 h, pooled replicates) was 10 fold and the “decrease of SOX2 level” value ([7]; 45 nM RocA, 24 h, pooled replicates) was 10 fold. For the same compound, the “reduction in NANOG level” value ([7]; 45 nM RocA, 48 h) was 10 fold, the “reduction of OCT4” value ([7]; 45 nM RocA, 48 h (dose experiment)) was 3.3 fold and the “decrease of OCT4” value ([7]; 45 nM RocA, 48 h, 3 biological replicates pooled) was 2.5 fold. The “SOX2 level increased back” value ([7]; 45 nM RocA, 48 h, pooled replicates) was 2 fold, the SOX2 [7, 12] was “degradation of SOX2 was observed” and the “decrease of OCT4” value [7, 12] was 10 fold. For the same compound, the “expression of BIRC5, Cyclin D1, Cyclin D3, and ROCK1” value ([7]; 15, 30, and 45 nM RocA, 48 h) was “dramatic reduction”, the “total protein level of eIF4A” value ([7]; 15, 30, and 45 nM RocA, 48 h) was “did not affect” and the “induction of cleaved caspase-3 (increase)” value ([7]; RocA 15-45 nM, 48 h) was “up to 17.1 fold”. For the same compound, the “levels of the BCSC markers ALDH1A1 and CD44” value ([7]; RocA, 48 h) was “not affected”, the SOX2 level ([7]; all concentrations of RocA, 48 h) was “remained elevated above the basal level” and the “targeting of cell viability” value (SUM-159PT cells) was “effective”. For the same compound, the “DRAQ7 staining (dead BCSCs)” value [8] was “intense DRAQ7 staining”, the “reduction of the primary mammospheres” value [9] was roughly 50% and the “secondary MFE” value [9] was “severely impacted”. The “BCSCs intensely stained with DRAQ7” value [10] was “More than 50%” and the cells dead [11] was “More than 50%”.
